Experimental data published in PubChem BioAssay (NCI).
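GI50 is the concentration that inhibits growth by half. The concentration for full growth arrest is given as TGI.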

What was measured:
Test in all cases: NCI tumour cell line growth inhibition, 384-well format
NCI-H226 lung = test system: NCI-H226 lung
NCI-H23 lung = test system: NCI-H23 lung
NCI-H322M lung = test system: NCI-H322M lung
NCI-H460 NSCLC = test system: NCI-H460 NSCLC
NCI-H522 lung = test system: NCI-H522 lung
NCI/ADR-RES ovarian = test system: NCI/ADR-RES ovarian
OVCAR-3 ovarian = test system: OVCAR-3 ovarian
OVCAR-4 ovarian = test system: OVCAR-4 ovarian
OVCAR-5 ovarian = test system: OVCAR-5 ovarian
OVCAR-8 ovarian = test system: OVCAR-8 ovarian
PC-3 prostate = test system: PC-3 prostate
RPMI-8226 leukemia = test system: RPMI-8226 leukemia
RXF 393 renal = test system: RXF 393 renal
SF-268 CNS = test system: SF-268 CNS
SF-295 CNS = test system: SF-295 CNS
SF-539 CNS = test system: SF-539 CNS
SK-MEL-28 melanoma = test system: SK-MEL-28 melanoma
SK-MEL-5 melanoma = test system: SK-MEL-5 melanoma
SK-OV-3 ovarian = test system: SK-OV-3 ovarian
SN12C renal = test system: SN12C renal
SNB-19 CNS = test system: SNB-19 CNS
SNB-75 CNS = test system: SNB-75 CNS
SR leukemia = test system: SR leukemia
SW-620 colon = test system: SW-620 colon
T-47D breast = test system: T-47D breast
TK-10 renal = test system: TK-10 renal
U251 glioblastoma = test system: U251 glioblastoma
UACC-257 melanoma = test system: UACC-257 melanoma
UO-31 renal = test system: UO-31 renal

Molecule O=C(Nc1cc(F)c(F)cc1C(=O)O)c1ccc(-n2ccnc2)nn1 has a GI50 (NCI-H226 lung) of over 100 µM, a TGI (NCI-H226 lung) of over 100 µM and a GI50 (NCI-H23 lung) of over 100 µM. It also gave a TGI (NCI-H23 lung) of over 100 µM, a GI50 (NCI-H322M lung) of over 100 µM and a TGI (NCI-H322M lung) of over 100 µM. The GI50 (NCI-H460 NSCLC) was over 100 µM, the TGI (NCI-H460 NSCLC) was over 100 µM and the GI50 (NCI-H522 lung) was 65.1 µM. For the same molecule, the TGI (NCI-H522 lung) was over 100 µM, the GI50 (NCI/ADR-RES ovarian) was over 100 µM and the TGI (NCI/ADR-RES ovarian) was over 100 µM. It also gave a GI50 (OVCAR-3 ovarian) of over 100 µM, a TGI (OVCAR-3 ovarian) of over 100 µM and a GI50 (OVCAR-4 ovarian) of over 100 µM. For the same molecule, the TGI (OVCAR-4 ovarian) was over 100 µM, the GI50 (OVCAR-5 ovarian) was over 100 µM and the TGI (OVCAR-5 ovarian) was over 100 µM. It also gave a GI50 (OVCAR-8 ovarian) of over 100 µM, a TGI (OVCAR-8 ovarian) of over 100 µM and a GI50 (PC-3 prostate) of over 100 µM. The TGI (PC-3 prostate) was over 100 µM, the GI50 (RPMI-8226 leukemia) was over 100 µM and the TGI (RPMI-8226 leukemia) was over 100 µM. For the same molecule, the GI50 (RXF 393 renal) was over 100 µM, the TGI (RXF 393 renal) was over 100 µM and the GI50 (SF-268 CNS) was over 100 µM. For the same molecule, the TGI (SF-268 CNS) was over 100 µM, the GI50 (SF-295 CNS) was over 100 µM and the TGI (SF-295 CNS) was over 100 µM. For the same molecule, the GI50 (SF-539 CNS) was over 100 µM, the TGI (SF-539 CNS) was over 100 µM and the GI50 (SK-MEL-28 melanoma) was over 100 µM. It also gave a TGI (SK-MEL-28 melanoma) of over 100 µM, a GI50 (SK-MEL-5 melanoma) of 57.9 µM and a TGI (SK-MEL-5 melanoma) of over 100 µM. For the same molecule, the GI50 (SK-OV-3 ovarian) was over 100 µM, the TGI (SK-OV-3 ovarian) was over 100 µM and the GI50 (SN12C renal) was over 100 µM. The TGI (SN12C renal) was over 100 µM, the GI50 (SNB-19 CNS) was over 100 µM and the TGI (SNB-19 CNS) was over 100 µM. The GI50 (SNB-75 CNS) was over 100 µM, the TGI (SNB-75 CNS) was over 100 µM and the GI50 (SR leukemia) was 23.3 µM. It also gave a TGI (SR leukemia) of 49.7 µM, a GI50 (SW-620 colon) of over 100 µM and a TGI (SW-620 colon) of over 100 µM. For the same molecule, the GI50 (T-47D breast) was over 100 µM, the TGI (T-47D breast) was over 100 µM and the GI50 (TK-10 renal) was over 100 µM. For the same molecule, the TGI (TK-10 renal) was over 100 µM, the GI50 (U251 glioblastoma) was over 100 µM and the TGI (U251 glioblastoma) was over 100 µM. The GI50 (UACC-257 melanoma) was over 100 µM, the TGI (UACC-257 melanoma) was over 100 µM and the GI50 (UO-31 renal) was over 100 µM. It also gave a TGI (UO-31 renal) of over 100 µM.
